For assay [1], the system named is Human umbilical vein endothelial cells (HUVECs). Put plainly: In vitro endothelial tube formation assay on Matrigel. Type of assay: cell-based. How it is done:
In Vitro Tube Formation Assay—
Tube formation assays were performed as described (Arnaoutova and Kleinman 2010; Cassavaugh, Hale et al. 2011). Human Umbilical Vein Endothelial Cells (HUVECs) were seeded in 48-well plates (1.5×10^4 cells/well) coated with 100 μl of Matrigel™ Basement Membrane Matrix Growth Factor Reduced (BD Biosciences, San Jose, Calif.) and incubated in Clonetics® EGM®-2 complete media (Lonza, Annandale, N.J.) or EGM®-2 with reduced serum (0.2% fetal bovine serum). Cells were incubated at 37° C. for 6 h then fixed in 10% formalin. Fixed samples were imaged by phase-contrast microscopy or stained with Oregon Green 488 Phalloidin (Molecular Probes, Eugene, Oreg.) then imaged with fluorescence microscopy (2× objective). Number of tubes and tube lengths (in pixels) were quantified using the Simple Neurite Tracer (Longair, Baker et al. 2011) plug-in on ImageJ software (NIH). Statistical analysis of one-way ANOVA was performed with GraphPad Software. Multiple comparisons were performed using the Tukey Test.

In a further assay the test system is HUVECs. Briefly: Endothelial cell proliferation assay (alamarBlue). Format: cell-based, human. The method, then: Endothelial Cell Proliferation Assay—
The […] alamarBlue® (Invitrogen) reagent was used to assess cell proliferation (Ahmed, Gogal et al. 1994). HUVECs were seeded in a 96-well dish (1×10^3 cells/well) and grown for 48 h in EGM®-2 media. […] After 48 h, 72 h, or 96 h in culture, 10 μl/well premixed alamarBlue® (Invitrogen) was added and after 3 h at 37° C. the amount of reduced alamarBlue® was quantified by fluorescence (excitation at 530 nm, emission at 590 nm) on a microplate reader (Synergy™ HT, BioTek, Winooski, Vt.).

The subject of a further assay is HUVEC. Put plainly: Transwell migration assay. Type of assay: cell-based, human. To be noted: 4 h. How it is done:
Transwell Migration Assay—
Migration was assessed using transwell inserts (Svensson, Kucharzewska et al. 2011). […] Cultures were incubated for 4 h, fixed in 10% formalin, and stained with 10 μg/ml DAPI solution (Roche) following removal of cells from the top layer of the chamber with a cotton swab. Migrated cells were imaged using a 4× objective on the Olympus IX70 Inverted microscope (Olympus). DAPI-stained nuclei were counted using ImageJ software.

Assay [2] has as its target T1, TARS (Homo sapiens, UniProt P26639).
T1 sequence (P26639 1-723): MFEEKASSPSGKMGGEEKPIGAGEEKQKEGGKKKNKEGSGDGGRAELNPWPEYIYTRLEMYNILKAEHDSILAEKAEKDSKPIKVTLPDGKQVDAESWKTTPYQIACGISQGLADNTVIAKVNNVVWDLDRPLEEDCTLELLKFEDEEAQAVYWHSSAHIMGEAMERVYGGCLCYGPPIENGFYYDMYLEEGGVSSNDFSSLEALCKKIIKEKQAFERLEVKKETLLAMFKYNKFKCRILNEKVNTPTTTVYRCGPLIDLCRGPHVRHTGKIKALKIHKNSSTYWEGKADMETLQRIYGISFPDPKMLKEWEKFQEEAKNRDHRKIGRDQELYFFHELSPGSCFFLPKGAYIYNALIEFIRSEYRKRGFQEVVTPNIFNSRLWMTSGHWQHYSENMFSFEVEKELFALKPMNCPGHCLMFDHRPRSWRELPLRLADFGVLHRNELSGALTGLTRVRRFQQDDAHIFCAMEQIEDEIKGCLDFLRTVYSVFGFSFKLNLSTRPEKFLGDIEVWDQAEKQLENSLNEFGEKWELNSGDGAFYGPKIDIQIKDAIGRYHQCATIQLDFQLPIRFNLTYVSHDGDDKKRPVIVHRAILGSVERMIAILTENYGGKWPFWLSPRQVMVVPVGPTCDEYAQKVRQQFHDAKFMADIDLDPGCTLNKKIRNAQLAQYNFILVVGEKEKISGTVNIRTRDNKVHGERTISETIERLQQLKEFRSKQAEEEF
Briefly: Ap4G formation assay (TLC, [α-32P]-GTP). Type of assay: biochemical. Set-up: His6 (N); made in house; host or cells: E. coli Rosetta 2 (DE3)pLysS, plasmid pET28a hctThrRS.

In assay [3] the test system is chorioallantoic membrane (CAM) of chicken embryos. Put plainly: Chick chorioallantoic membrane (CAM) assay. Type of assay: in vivo. How it is done: Chick Chorioallantoic Membrane Assay—
Fertilized chicken eggs (Sunrise Farms, Catskill, N.Y.) day 1-2 post-laying were incubated in a humidified incubator at 37° C. for 72 h. Cleaned eggs were cracked and plated in a sterile 10 cm^2 tissue culture-treated dish and incubated at 37° C. for another 7 days. On developmental day 10, 1 mm^3 sterile gelatin sponge pieces (Surgifoam®; Johnson & Johnson Wound Management, Somerville, N.J.) were placed within the outer one-third of the membrane between large vessels. […] All compounds were applied in 10 μl to the CAM every 24 h for 72 h. Images were taken using a Leica MZ6 stereomicroscope every 24 h. Compounds were scored according to a modified version of Intensity Scoring as previously described (Ribatti, Nico et al. 2006). Briefly, each experimental condition was given a blinded score from 0-5 based on the change in the extent of vessel convergence and formation in proximity to the sponge from day 0 to day 3. Total score is averaged individual experimental condition scores from at least 15 replicates.
Fertilized chicken embryos were cultured ex-ova and, starting at developmental day 10, agents were applied daily to gelfoam sponges on the CAM. Images were recorded daily over 72 h and scored blindly according to a modified version Intensity Scoring as previously described (Ribatti, Nico et al. 2006). Additional details regarding methods are provided in the Methods and Materials section of Example 1.

Assay [4] has as its target T1, TARS. Put plainly: GTPase (GTP hydrolysis) assay. To be noted: for GTP hydrolysis rate: 2 mM GTP. Format: biochemical. Also on record: His6 (N); made in house; host or cells: E. coli Rosetta 2 (DE3)pLysS, plasmid pET28a hctThrRS.
Assay [5] has as its target T1, TARS. Put plainly: Ap4A formation assay (TLC, [α-32P]-ATP). Format: biochemical. Set-up: His6 (N); made in house; host or cells: E. coli Rosetta 2 (DE3)pLysS, plasmid pET28a hctThrRS.

Entries after “also recorded” stand apart in the source; their conditions may differ.

Turning to `C[C@@H]1C[C@H](C)C[C@H](C)[C@@H](O)CC(=O)O[C@H]([C@@H]2CC[C@H]2C(=O)O)C/C=C/C=C(/C#N)[C@H](O)[C@@H](C)C1` [BC194], the “number of branches formed by endothelial cells in tube formation assay” value in assay [1] (HUVECs on Matrigel, full serum media, 6 h, range of BC194 concentrations) is listed as “sensitive to subnanomolar concentrations; also recorded: inhibits endothelial tube formation”. Moreover, the “tube (branch) length” value in assay [1] (HUVECs, range of BC194 concentrations) was “unaffected; also recorded: does not affect”. In assay [1] (lower), the “concentration required to affect tube formation relative to that required to detect unfolded protein response (phospho-eIF2α) and apoptosis (cleaved caspase-3)” value is 100 fold. In the assay with HUVECs (HUVECs, 50 ng/ml VEGF, 10 nM BC194), the “VEGF proliferative response, effect of BC194” value was “did not significantly reduce”. Also, in the assay on HUVECs (HUVECs, BC194 concentrations below 100 nM), the proliferation result was “unaffected”. Also, the “VEGF- and TARS-mediated migration, effect of BC194” value in the assay with HUVEC (10 nM BC194 with 50 ng/ml VEGF or 100 nM TARS) is “reduced both the migration effects of VEGF and TARS”. Also, the “Ap4G synthesis, inhibition (qualitative)” value on TARS [2] (human TARS, 10 μM compound) is recorded as “at least partially inhibited”. Besides, at TARS [2] (wildtype TARS, 10 μM BC194), the “reduction of Ap4G reaction rate” value is recorded as 57%. For the same molecule, the “CAM vessel formation, effect of inhibitor” value in assay [3] (BC194 10 nM applied daily, basal level and after stimulation with bFGF or VEGF) was “inhibited vessel formation”. Further, the “change of TARS GTPase activity upon treatment with inhibitor” value at TARS [4] (10 μM compound) is on record as “no observable change”. Besides, on TARS [5] (human TARS, 10 μM compound), the “Ap4A synthesis, inhibition (qualitative)” value is “at least partially inhibited”. Besides, the “decrease in Ap4A formation activity” value on TARS [5] (wildtype TARS, 10 μM compound) turned out to be 31.0%.

B1: TARS: N-terminal His6-tagged human threonyl-tRNA synthetase expressed and purified from E. coli; SEQ ID NO:2 (protein, listed as Homo sapiens)
chain: T1 sequence (P26639 1-723)
modifications: N-terminal His6 tag
For B1, the “number of tube branches” value in assay [1] (100 nM purified recombinant human TARS added to low serum (0.2% FBS) media, 6 h) was “significantly increased; also recorded: promotes angiogenesis”. Besides, the “cell proliferation, effect of TARS” value in the assay with HUVECs (HUVECs in low serum (0.2% FBS) media) is “did not exert a significant effect; also recorded: does not significantly affect cell proliferation”. Besides, the “migration of endothelial cells” value with HUVEC (100 nM protein in migration compartment) was “significantly increased migration; also recorded: selectively induces migration”. The same molecule gave an Ap4G formation rate in the assay with TARS [2] (2 mM ATP, 2 mM threonine, 2 mM GTP) of 0.1639 Ap4G/active site/min. In addition, the “sensitivity of synthetase-induced CAM angiogenesis to BC194” value in assay [3] (protein plus BC194 applied to CAM) is on record as “sensitive to BC194”. The “CAM vessel formation / vascularity, effect of applied synthetase” value in assay [3] (purified protein applied daily to gelfoam sponge, 72 h) was “stimulated vessel formation; also recorded: induces in vivo angiogenesis”. For the same molecule, the GTP hydrolysis rate entry is recorded as “potent GTPase activities” with TARS [4] (listed as human TARS) and 0.3033 GDP/active site/min with TARS [4] (listed as wildtype). Also, the Ap4A production rate with TARS [5] (5 μM enzyme, 2 mM threonine, 2 mM ATP) was found to be 0.1391 Ap4A/active site/min.

The values above are taken from patent US10125358B2, “Methods and compounds for increasing threonyl-tRNA synthetase activity” (UNIVERSITY OF VERMONT AND STATE AGRICULTURAL COLLEGE, priority 2012, dated 2018).
